Results: US4965280A, “Antifungal carbinols” (E. I. Du Pont de Nemours and Company, priority 1989, dated 1990)
Values after ≈ are worked out from the molar mass of the structure shown. Like-named read-outs stand apart in the source and are kept apart here.

Key:
Phytophthora infestans = experiment: whole plant or invertebrate; assay type: in vivo; conditions: Phytophthora infestans, in Solanum lycopersicum, read-out: disease control rating, Ex. H, 100 PPM
Pyricularia oryzae = experiment: whole plant or invertebrate; assay type: in vivo; conditions: Pyricularia oryzae, 120 h; for pest or weed control at 20 ppm: read-out: disease control rating, Ex. E, 20 PPM; for pest or weed control at 100 ppm: read-out: disease control rating, Ex. E, 100 PPM
[1] = system: Erysiphe graminis f. sp. tritici; experiment: Example D wheat powdery mildew; assay type: in vivo; conditions: Blumeria graminis, 144 h, read-out: disease control rating, Ex. D
Description: (§1) The test compounds were dissolved in acetone in an amount equal to 6% of the final volume and then suspended at a concentration of 100 or 20 ppm in purified water containing 250 ppm of the surfactant TREM 014 (polyhydric alcohol esters). This suspension was sprayed to the point of run-off on wheat seedlings.

[2] = system: Candida albicans ATCC 11651; experiment: In vivo systemic Candida infection in mice, primary assay; set-up: species or system Candida albicans; CF-1 female mice; conditions: Candida albicans, 150 mg/kg per day, read-out: % Survival
Excerpt: The […] activity of test compounds is based on the percent (%) survival of infected animals receiving test or standard agent compared to that in an infected untreated group (Table 6). The in vivo assays are chronic systemic infections lethal to mice within 7 days post infection, [J. Barnes, et al. Lab Investigation, 49 460-467 (1963), and T. Rogers and E. Balish, Infection and Immunity, 14 33-38 (1976)].
Candida albicans ATCC 11651, from a frozen stock culture (10^9 organisms/ml) maintained at -70°, is diluted in saline to 1×10^7 organisms/ml and 0.2 ml inoculated intravenously (caudal vein) into 20.0 gm CF-1 female mice (Charles River).
Test compounds are routinely solubilized in 0.25% (w/v) methylcellulose (Methocel®) but for those compounds difficult to solubilize 10% (w/v) Emulophor® (EL620 GAF Corp.) is used. The standard antifungal agents, amphotericin B (Fungizone®) in water and ketoconazole (Nizoral®) in Methocel®, are administered at 1.0 mg/kg/day and 150 mg/kg/day, respectively.
In a primary assay, mice (10 per group) are infected with C. albicans, and receive test compounds at 50 or 150 mg/kg/day via the subcutaneous route. Animals are dosed with the test compound at 1 and 6 hour post-infection and then once daily for the next three days. Survival of mice in each group is recorded for 21 days.
Compounds which protect ≥70% of the infected animals for 14 days at a dose 150 mg/kg/day or less are viewed as active.

Venturia inaequalis = experiment: Example A apple scab; assay type: in vivo; conditions: read-out: disease control rating, Ex. A
Description: as §1, with “apple seedings.” for “wheat seedlings.”

Botrytis cinerea = experiment: Example C bean grey mold; assay type: in vivo; conditions: Botrytis cinerea, 24 h, read-out: disease control rating, Ex. C
Description: as §1, with “broad bean” for “wheat”

Rhizoctonia solani = experiment: Example F rice sheath blight; assay type: in vivo; conditions: Rhizoctonia solani, 144 h, read-out: disease control rating, Ex. F
Description: as §1, with “rice” for “wheat”

[3] = system: Aspergillus fumigatus ATCC 28214; experiment: In vitro antifungal MIC, microtiter broth dilution; conditions: Aspergillus fumigatus, ATCC28214, 24 h, read-out: MIC values, A. fumigatus, 30°, 24 hours
Plasmorpara viticola = experiment: Example I grape downy mildew; assay type: in vivo; conditions: read-out: disease control rating, Ex. I
Description: as §1, with “grape” for “wheat”

Puccinia recondita = experiment: Example G wheat leaf rust; assay type: in vivo; conditions: read-out: disease control rating, Ex. G
[4] = system: Cercosporidium personatum; experiment: Example B Peanut Late Leafspot; assay type: in vivo; conditions: Nothopassalora personata, read-out: disease control rating, Ex. B
Description: as §1, with “peanut” for “wheat”

[5] = system: Candida albicans ATCC 11651; experiment: In vitro antifungal MIC, microtiter broth dilution; conditions: Candida albicans, ATCC11651, 24 h, read-out: MIC values, C. albicans, 30°, 24 hours
Pythium aphanadermatum = experiment: Example J cucumber damping off; assay type: in vivo; set-up: key to phytotoxicity entry, Ex. J: P: disease control was not measured due to phytoxicity; conditions: 5 kg/ha
Description: […] Seeds and soil were then inoculated with a mixture of sand, cereal and mycelium of the fungus Pythium aphanadermatum, causal agent of cucumber damping off, and incubated in a growth chamber at 30° C. for 14 days. Disease ratings were then made.

Compound | pest or weed control at 100 ppm (Phytophthora infestans) [%] | pest or weed control at 20 ppm (Pyricularia oryzae) [%] | pest or weed control at 100 ppm (Pyricularia oryzae) [%] | pest or weed control at 20 ppm [1] [%] | responders at 150 mg/kg ([2]; ATCC11651, 168 h, day 7) [%] | responders at 150 mg/kg ([2]; ATCC11651, 336 h, day 14) [%] | responders at 150 mg/kg ([2]; ATCC11651, 504 h, day 21) [%] | pest or weed control at 20 ppm (Venturia inaequalis) [%] | pest or weed control at 20 ppm (Botrytis cinerea) [%] | pest or weed control at 100 ppm (Botrytis cinerea) [%] | pest or weed control at 20 ppm (Rhizoctonia solani) [%] | pest or weed control at 100 ppm (Rhizoctonia solani) [%] | MIC [3] [µg/mL] | pest or weed control at 100 ppm (Plasmorpara viticola) [%] | pest or weed control at 20 ppm (Puccinia recondita) [%] | pest or weed control at 20 ppm [4] [%] | MIC [5] [µg/mL] | pest or weed control at 100 ppm [1] [%] | pest or weed control at 100 ppm (Venturia inaequalis) [%] | pest or weed control at 100 ppm (Puccinia recondita) [%] | further results
C=C(c1ccc(F)cc1)C(Cn1cncn1)(OC(C)=O)c1ccc(F)cc1 (centres unmarked) [Example 361] | 27 | 1 | 1 | 33 | 100 | 100 | 90 | 43 | 29 | 46 | 0 | 0 | 25 (≈ 67.7 µM) | 9 | 100 | 26 | 0.8 (≈ 2.17 µM) |  |  |  | 
C=C(CN1CC(C)OC(C)C1)C(O)(Cn1cncn1)c1ccc(F)cc1 (centres unmarked) [Example 477] | 0 |  | 48 |  |  |  |  |  |  | 76 |  | 48 |  | 0 |  |  | > 100 | 100 | 95 | 100 | phytotoxicity entry, Ex. J (Pythium aphanadermatum): P; pest or weed control at 100 ppm [4]: 100%
C=C(c1ccccc1)C(O)(Cn1cncn1)c1ccccc1Cl (centres unmarked) [Example 596] | 0 | 0 | 0 | 94 | 70 | 60 | 40 | 91 | 35 | 89 | 0 | 0 | 0.4 (≈ 1.23 µM) | 25 | 100 | 95 | 0.05 (≈ 0.153 µM) |  |  |  | 
C=C(c1ccccc1Cl)C(O)(Cn1cncn1)c1ccc(Cl)c(Cl)c1 (centres unmarked) [Example 627] | 0 | 0 | 0 | 81 | 0 | 0 | 0 | 31 | 19 | 38 | 0 | 14 | 25 (≈ 63.3 µM) | 61 | 99 | 70 | 0.03 (≈ 0.076 µM) |  |  |  | 
C=C(c1ccc(F)cc1)C(O)(Cn1cncn1)c1ccccc1 (centres unmarked) [Example 656] | 0 |  | 0 |  | 100 | 90 | 40 |  |  | 88 |  | 50 | 12.5 (≈ 40.4 µM) | 20 |  |  | ≤ 0.4 | 97 | 93 | 100 | pest or weed control at 5000 g/ha (Pythium aphanadermatum; Pythium, 336 h, read-out: disease control rating, Ex. J): 0%; pest or weed control at 100 ppm [4]: 100%
C=C(c1ccc(F)cc1)C(O)(Cn1cncn1)c1cccc(C(F)(F)F)c1 (centres unmarked) [Example 661] | 5 | 0 | 0 | 62 | 50 | 20 | 0 | 81 | 61 | 56 | 10 | 70 | 100 (≈ 265 µM) | 85 | 100 | 79 | 1.6 (≈ 4.24 µM) |  |  |  | 
C=C(c1ccc(F)cc1)C(O)(CC)Cn1cncn1 (centres unmarked) [Example 668] | 22 | 1 | 1 | 31 | 70 | 10 | 0 | 65 | 31 | 76 | 0 | 0 | 50 (≈ 191 µM) | 31 | 100 | 17 | 0.4 (≈ 1.53 µM) |  |  |  | 
C=C(c1ccc(Cl)cc1)C(O)(Cn1cncn1)c1ccc(Cl)c(Cl)c1 (centres unmarked) [Example 675] | 0 | 0 | 0 | 44 | 100 | 60 | 0 | 40 | 42 | 30 | 0 | 62 | 25 (≈ 63.3 µM) | 69 | 16 | 0 | 0.1 (≈ 0.253 µM) |  |  |  | 
C=C(c1ccc(C)cc1)C(O)(Cn1cncn1)c1ccc(F)cc1 (centres unmarked) [Example 721] | 0 |  | 18 |  | 100 | 30 | 30 |  |  | 95 |  | 100 | 12.5 (≈ 38.7 µM) | 0 |  |  | 0.4 (≈ 1.24 µM) | 94 | 73 | 100 | phytotoxicity entry, Ex. J (Pythium aphanadermatum): P; pest or weed control at 100 ppm [4]: 89%
